From ChEMBL document CHEMBL5338779, “Discovery, Synthesis, and In Vitro Characterization of 2,3 Derivatives of 4,5,6,7-Tetrahydro-Benzothiophene as Potent Modulators of Retinoic Acid Receptor-Related Orphan Receptor γt” (J Med Chem, 2023)
Values after ≈ are worked out from the molar mass of the structure shown. Active and inactive are the calls of the source. The rule behind the calls is not given here.

Tests used:
[1] = Apparent permeability across apical to basolateral side in MDCKII-MDR1 cells at 10 uM incubated for 90 mins by LC-MS/MS analysis; details: dog, mdck-mdr1, 1.5 h
[2] = physchem; details: fasted state simulated gastric fluid, pH 1.6
[3] = physchem; details: PBS, pH 7.4
[4] = Apparent permeability across apical to basolateral side in human Caco-2 cells measured after 90 mins by LC-MS/MS analysis; details: caco-2, 1.5 h
[5] = Lipophilicity, logD of the compound at pH 7.4; details: buffer
[6] = physchem; details: citrate buffer, pH 5
[7] = target: T1, Nuclear receptor ROR-gamma (Homo sapiens) (UniProt P51449); details: HEK293T, filed as inverse agonist, dose 0.004-1000 nM
T1 sequence (whole entry): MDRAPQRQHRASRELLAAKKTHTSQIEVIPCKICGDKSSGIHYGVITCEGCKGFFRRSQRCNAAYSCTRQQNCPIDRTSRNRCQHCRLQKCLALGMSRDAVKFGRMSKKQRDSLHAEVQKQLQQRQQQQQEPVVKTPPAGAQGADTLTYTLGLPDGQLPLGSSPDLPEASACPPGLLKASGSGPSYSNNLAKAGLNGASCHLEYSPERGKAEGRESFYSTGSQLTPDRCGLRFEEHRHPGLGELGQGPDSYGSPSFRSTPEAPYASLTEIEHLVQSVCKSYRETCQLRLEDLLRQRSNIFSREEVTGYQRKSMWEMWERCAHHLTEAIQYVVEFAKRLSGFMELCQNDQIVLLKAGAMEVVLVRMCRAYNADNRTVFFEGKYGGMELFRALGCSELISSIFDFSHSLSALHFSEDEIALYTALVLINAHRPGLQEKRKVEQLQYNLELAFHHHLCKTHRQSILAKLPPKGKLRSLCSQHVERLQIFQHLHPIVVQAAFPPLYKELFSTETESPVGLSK

[8] = target: T2, Nuclear receptor ROR-gamma (Homo sapiens, UniProt P51449); test: biochemical; format: cell-based, Insect cell
T2 sequence (P51449 whole entry): T1 sequence (whole entry)

[9] = Substrate activity at P-gp in MDCKII-MDR1 cells assessed as efflux ratio of apparent permeability from apical to basolateral side over basolateral to apical side at 10 uM incubated for 90 mins by LC-MS/MS analysis; details: dog, mdckii-mdr1, 1.5 h
[10] = Efflux ratio of apparent permeability from apical to basolateral side over basolateral to apical side in MDCKII-MDR1 cells at 10 uM incubated for 90 mins in presence of cyclosporine A by LC-MS/MS analysis; details: dog, mdck-mdr1, 1.5 h
[11] = buffer, pH 7.4, 2 h
[12] = target: T1, Nuclear receptor ROR-gamma (Homo sapiens); test: Inverse agonist activity at RORgammaT in human PBMC cells assessed as reduction in CD4-positive IL21-positive cells in Th17 polarization at 10 nM incubated for 48 hrs relative to control; format: cell-based; parameters: scale not given: the % may be the effect or the level left
[13] = system: PBMC; test: Cytotoxicity against human PBMC cells assessed as cell death by flow cytometry method; format: toxicity, cell-based
[14] = system: PBMC; test: Cytotoxicity against human PBMC cells assessed as increase in cell proliferation by flow cytometry method; format: toxicity, cell-based
[15] = target: T1, Nuclear receptor ROR-gamma (Homo sapiens); test: Inverse agonist activity at RORgammaT in human PBMC cells assessed as reduction in IFNgamma-positive T cells in Th17 polarization at 10 nM incubated for 48 hrs; format: cell-based
[16] = target: T1, Nuclear receptor ROR-gamma (Homo sapiens); test: Inverse agonist activity at RORgammaT in human PBMC cells assessed as reduction in CD4-positive IL17A-positive cells in Th17 polarization at 10 nM incubated for 48 hrs relative to control; format: cell-based; parameters: scale not given: the % may be the effect or the level left
[17] = target: T1, Nuclear receptor ROR-gamma (Homo sapiens); test: Inverse agonist activity at RORgammaT in human PBMC cells assessed as reduction in IL22-positive T cells in Th17 polarization at 10 nM incubated for 48 hrs; format: cell-based
[18] = system: PBMC; test: Induction of apoptosis in human PBMC cells by flow cytometry method; format: toxicity, cell-based
[19] = system: PBMC; test: Cytotoxicity against human PBMC cells assessed as reduction in cell viability by flow cytometry method; format: toxicity, cell-based

Row | SMILES | Papp [1] | solubility kinetic at 2 h [2] | solubility kinetic at 2 h [3] | Papp [4] | logD [5] | solubility kinetic at 2 h [6] | deltaG [7] | IC50 [8] | other results
1 | CCC1CCc2c(sc(NC(=O)c3ccnn3C)c2C(=O)Nc2ccccc2C)C1 (stereo not drawn) | 3.2 10^-6 cm/s | 2.8 µM (≈ 1.18 µg/mL) | ≤ 1 µM | 1.8 10^-6 cm/s | 4.72 | 8.13 µM (≈ 3.44 µg/mL) |  |  | 
2 | Cc1cnc(S(C)(=O)=O)nc1C(=O)Nc1sc2c(c1C(=O)c1ccccc1)CCCC2 |  |  | ≤ 1 µM |  | 3.94 |  | -10.1 kcal/mol | 16.6 nM | 
3 | O=C(Nc1sc2c(c1C(=O)N1CCC(CO)C1)CCCC2)c1cccnc1 (stereo not drawn) | 5.2 10^-6 cm/s | 330 µM (≈ 127 µg/mL) | 79.3 µM (≈ 30.6 µg/mL) | 4.4 10^-6 cm/s | 2.6 | 365 µM (≈ 141 µg/mL) | -6.16 kcal/mol | 45.8 nM | Ratio [9]: 4.7; Ratio [10]: 1.4
4 | CC1CCc2c(sc(NC(=O)c3ccccc3F)c2C(=O)N2CCN(C)CC2)C1 (stereo not drawn) | 28.9 10^-6 cm/s | ≥ 400 µM | 27.7 µM (≈ 11.5 µg/mL) | 28.2 10^-6 cm/s | 3.59 | 349 µM (≈ 145 µg/mL) |  |  | 
5 | C[C@@H]1CCN(C(=O)c2c(NC(=O)c3cccnc3)sc3c2CCCC3)[C@H](C)C1 (single isomer, unassigned) |  | ≥ 200 µM | 27 µM (≈ 10.7 µg/mL) |  | 4.45 | 23.7 µM (≈ 9.43 µg/mL) |  |  | 
6 | CCc1ccc(N(CC(C)C)S(=O)(=O)c2ccc(OCC3CCOCC3)c(CO)c2)cc1 [GSK2981278] |  |  |  |  | 4.11 |  |  | 1.71 nM | Kinetic_solubility [11]: Insoluble
7 | C[C@@H](C#N)NC(=O)c1c(NC(=O)c2cccnc2)sc2c1CCCC2 |  |  | 90.9 µM (≈ 32.2 µg/mL) |  | 2.85 |  |  |  | 
8 | O=C(CN1CCCCC1)Nc1sc2c(c1C(=O)NCc1ccccc1)CCCC2 |  |  | 19.7 µM (≈ 8.11 µg/mL) |  | 4.33 |  | -10.3 kcal/mol | 2.15 nM | 
9 | O=C(Nc1sc2c(c1C(=O)NCC1CCNCC1)CCCC2)c1cccnc1 |  |  | 84.7 µM (≈ 33.8 µg/mL) |  | 0.4 |  | -7.29 kcal/mol | 57.3 nM | 
10 | CC1CCN(CC(=O)Nc2sc3c(c2C(=O)NCc2ccccc2)CCCC3)CC1 | 1.3 10^-6 cm/s | 364 µM (≈ 155 µg/mL) | 12.4 µM (≈ 5.29 µg/mL) | 1.2 10^-6 cm/s | 4.57 | 3.02 µM (≈ 1.29 µg/mL) |  |  | 
11 | CN1CCN(C(=O)c2c(NC(=O)c3ccccc3F)sc3c2CCC(C(C)(C)C)C3)CC1 (stereo not drawn) |  |  | 10.6 µM (≈ 4.83 µg/mL) |  | 5.06 |  |  |  | 
12 | O=C(Nc1sc2c(c1C(=O)c1ccccc1)CCCC2)c1cnccn1 |  |  | 18.3 µM (≈ 6.67 µg/mL) |  | 4.15 |  | -10.1 kcal/mol | 19.6 nM | 
13 | CN1CCN(CC(=O)Nc2sc3c(c2C(=O)NCc2ccccc2)CCCC3)CC1 | 6.8 10^-6 cm/s | ≥ 400 µM | 99.3 µM (≈ 42.4 µg/mL) | 4.6 10^-6 cm/s | 3.06 | 357 µM (≈ 152 µg/mL) | -12.5 kcal/mol | 1.17 nM | Ratio [9]: 1.1; Ratio [10]: 1.2
14 | Cn1ccnc1SCC(=O)Nc1sc2c(c1C(=O)NCc1ccccc1)CCCC2 | 27.8 10^-6 cm/s | 267 µM (≈ 118 µg/mL) | 8.05 µM (≈ 3.55 µg/mL) | 18 10^-6 cm/s | 4.44 | 13.6 µM (≈ 5.97 µg/mL) |  |  | 
15 | CCC1CCN(C(=O)c2c(NC(=O)c3cccnc3)sc3c2CCCC3)C1 (stereo not drawn) |  |  | 32.9 µM (≈ 12.6 µg/mL) |  | 4.05 |  |  |  | 
16 | CSc1ncc(Cl)c(C(=O)Nc2sc3c(c2C(=O)NC2CCS(=O)(=O)C2)CCC(C)C3)n1 (stereo not drawn) | 2.5 10^-6 cm/s | 1.7 µM (≈ 0.876 µg/mL) | 40.2 µM (≈ 20.7 µg/mL) | 1.4 10^-6 cm/s | 3.28 | 9.72 µM (≈ 5.01 µg/mL) | -9.75 kcal/mol | 4.45 nM | Ratio [9]: 8.7; Ratio [10]: 1.1
17 | Cn1cnc(CNC(=O)c2c(NC(=O)c3cccnc3)sc3c2CCCC3)n1 |  |  | 93.6 µM (≈ 37.1 µg/mL) |  | 1.62 |  | -13.3 kcal/mol | 3.43 nM | 
18 | Cc1ccnc(SCC(=O)Nc2sc3c(c2C(=O)NCc2ccccc2)CCCC3)n1 |  |  | 3.23 µM (≈ 1.46 µg/mL) |  | 4.92 |  | -10.2 kcal/mol | 0.69 nM | 
19 | CC1(C)CCc2c(sc(NC(=O)c3cnccn3)c2C(=O)N2CCOCC2)C1 |  |  | 34.8 µM (≈ 13.9 µg/mL) |  | 3 |  |  |  | 
20 | O=C(NCc1ccccc1)c1c(NC(=O)C(F)(F)F)sc2c1CCCC2 |  |  | 28.8 µM (≈ 11 µg/mL) |  | 4.43 |  | -10.2 kcal/mol | 2.07 nM | 
21 | CSc1ncc(Cl)c(C(=O)Nc2sc3c(c2C(=O)NCc2ccccc2)CCCC3)n1 | 8 10^-6 cm/s |  | ≤ 1 µM | 4.2 10^-6 cm/s | 5.45 |  | -11.6 kcal/mol | 0.4 nM | Activity [12]: 20%; Activity [13]: Non-Toxic; Activity [14]: Non-Toxic; Activity [15]: inactive; Ratio [9]: 0.3; Activity [16]: 20%; Activity [17]: inactive; Activity [18]: Non-Toxic; Activity [19]: Non-Toxic; Ratio [10]: 0.3
22 | CC1CCCN1C(=O)c1c(NC(=O)c2cccnc2)sc2c1CCCC2 (stereo not drawn) | 29 10^-6 cm/s | ≥ 400 µM | 31.3 µM (≈ 11.6 µg/mL) | 34.2 10^-6 cm/s | 3.68 | 392 µM (≈ 145 µg/mL) | -7.57 kcal/mol | 3.51 nM | Ratio [9]: 0.8; Ratio [10]: 0.8
